# Data reported in patent publication US10800752B2, “Substituted naphtho[2,3-b]furans as water-soluble prodrugs for preventing and/or treating cancer” (BOSTON BIOMEDICAL, INC., priority 2015, dated 2020).
# Experiments:
# [1] = Evaluation of a conversion rate to 2-acetylnaphtho[2,3-b]furan-4,9-dione in CD1 mouse plasma; assay type: in vitro ADME; conditions: CD1 mouse plasma, 1 umol/L, 37° C., incubation time 120 min
# Method: (§1) For test compounds, the decrease rate of the test compounds and the conversion rate thereof to 2-acetylnaphtho[2,3-b]furan-4,9-dione in human plasma, CD1 mouse plasma, and pH 7.4 phosphate buffer solution were measured.
# (§2) Test compounds were incubated at the concentration of 1 umol/L in human plasma (cat. no. 12250210, COSMO BIO), CD1 mouse plasma (cat. no. AP3054, KAC), and phosphate buffer solution at 37° C., and removed at predetermined times (0, 5, 10, 30, 60, and 120 minutes). After protein-removing treatment was performed, they are analyzed with LC-MS. It should be noted that the protein-removing treatment used acetonitrile containing: 10% volume of 1 mol/L hydrochloric acid; 1% volume of 46% citric acid; and phenytoin as an internal standard.
# (§3) The measurement condition of LC-MS is as described below. LC-MS condition column: Kinetex 2.6 u PFP 100 A 50×2.1 mm Column temperature: 40° C.
# (§4) Mobile phase: A: 0.1% formic acid-containing water
# (§5) • B: 0.1% formic acid-containing acetonitrile A/B(min): 95/5(0)→5/95(3)→5/95(4)→95/5(4.1)→95/5(6) Flow rate: 0.4 mL/min Detection: ESI (positive mode) Injection volume: 10 uL
# Measurement values are calculated from the peak area ratio in LC-MS between an internal standard material, phenytoin and an active form, 2-acetylnaphtho[2,3-b]furan-4,9-dione, and are expressed in %.
# In the same way as Example 6, the incubation time was set as 120 minutes later, and the conversion rate of each of various test compounds to 2-acetylnaphtho[2,3-b]furan-4,9-dione in human plasma, CD1 mouse plasma, and pH 7.4 phosphate buffer solution was measured. A series of the present compounds were confirmed to be converted to 2-acetylnaphtho[2,3-b]furan-4,9-dione in pH 7.4 phosphate buffer solution in addition to human plasma and CD1 mouse plasma. Therefore, a series of the test compounds of the present invention were confirmed to be converted to the activated form via a route other than an enzymatic conversion.
# [2] = Evaluation of a conversion rate to 2-acetylnaphtho[2,3-b]furan-4,9-dione in pH 7.4 phosphate buffer solution; assay type: physicochemical; conditions: Phosphate buffer solution (pH 7.4), 1 umol/L, 37° C., incubation time 120 min
# Method in brief: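 Compounds at 1 umol/L were incubated at 37° C in human plasma, CD1 mouse plasma or pH 7.4 phosphate buffer, sampled up to 120 minutes, acid/acetonitrile-deproteinised and analysed by LC-MS (ESI positive). Conversion (%) derived from the peak area ratio of the active form to phenytoin internal standard.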
# Solubility test = conditions: 50 mmol/L glycine buffer solution (pH 2.0), room temperature, 24 hours shaking
# Method: A water-soluble prodrug was added into 50 mmol/L glycine buffer solution (pH 2.0). After shaking at room temperature for 24 hours, the mixture was filtered through a membrane filter, and then the filtrate was measured with HPLC.
# The measurement condition of HPLC is as described below. HPLC condition column: Acquity UPLC BEH C18, 1.7 um, 50×2.1 mm
# Mobile phase: A: 0.1% trifluoroacetic acid-containing water
# [3] = Evaluation of a conversion rate to 2-acetylnaphtho[2,3-b]furan-4,9-dione in human plasma; assay type: in vitro ADME; conditions: Human plasma, 1 umol/L, 37° C., incubation time 120 min
# Method: as §1, §2, §3, §4, §5
# In the same way as Example 6, the incubation time was set as 120 minutes later, and the conversion rate of each of various test compounds to 2-acetylnaphtho[2,3-b]furan-4,9-dione in human plasma, CD1 mouse plasma, and pH 7.4 phosphate buffer solution was measured.
SMILES,"% Measurement value (conversion rate to 2-acetylnaphtho[2,3-b]furan-4,9-dione) [1] [%]","% Measurement value (conversion rate to 2-acetylnaphtho[2,3-b]furan-4,9-dione) [2] [%]",Solubility in pH 2.0 buffer solution (Solubility test) [mg/mL],"% Measurement value (conversion rate to 2-acetylnaphtho[2,3-b]furan-4,9-dione) [3] [%]"
CC(=O)c1cc2c(OC(=O)NCCCCCCCN)c3ccccc3c(O)c2o1.Cl [Example 73],63,66,0.1,88
CC(=O)c1cc2c(OC(=O)NCCCCCCN)c3ccccc3c(OC(=O)NCCCCCCN)c2o1.Cl.Cl [Example 37],33,17,>5.0,35
COC(=O)CNCCNC(=O)Oc1c2ccccc2c(OC(=O)NCCNCC(=O)OC)c2oc(C(C)=O)cc12.Cl.Cl [Example 36],66,46,>5.0,73
CC(=O)c1cc2c(OC(=O)NCCCCCNCC(=O)O)c3ccccc3c(OC(=O)NCCCCCNCC(=O)O)c2o1.Cl.Cl [Example 35],70,38,>5.0,78
CC(=O)c1cc2c(OC(=O)NCCCCCCCCN)c3ccccc3c(OC(=O)NCCCCCCCCN)c2o1.Cl.Cl [Example 39],62,31,>5.0,80
CC(=O)c1cc2c(O)c3ccccc3c(OC(=O)NCCNCC(=O)NCC(=O)O)c2o1.Cl [Example 83],67,31,>5.0,67
CC(=O)c1cc2c(OC(=O)NCCCCCNCC(=O)O)c3ccccc3c(O)c2o1.Cl [Example 76],71,57,0.4,68
CC(=O)c1cc2c(OC(=O)NCCCNCC(=O)O)c3ccccc3c(OC(=O)NCCCNCC(=O)O)c2o1.Cl.Cl [Example 40],86,50,>5.0,89
CC(=O)c1cc2c(OC(=O)NCCCCCCCN)c3ccccc3c(OC(=O)NCCCCCCCN)c2o1.Cl.Cl [Example 38],72,39,>5.0,85
CC(=O)c1cc2c(OC(=O)NCCCCN)c3ccccc3c(O)c2o1.Cl [Example 74],62,82,4.9,70
